{
  "source": "paper PMC8070256",
  "about": "“Feasibility of Developing Radiotracers for MDM2: Synthesis and Preliminary Evaluation of an ^18F-Labeled Analogue of the MDM2 Inhibitor SP-141” (Pharmaceuticals, 2021)",
  "key": {"HepG2 cells": {"system": "HepG2 cells", "experiment": "Cell uptake of [^18F]1 in HepG2 cells after 21 h pretreatment", "format": "cell-based, human", "conditions": "vehicle-treated HepG2 cells, 1 h uptake", "procedure": "(§1) The ability of [^18F]1 to bind to MDM2 expressing human tumor cells was assessed using two wild-type p53 cell lines, MCF-7 breast adenocarcinoma, and HepG2 hepatocellular carcinoma. These cell lines have significant MDM2 expression levels and have been utilized previously for assessing potential MDM2 inhibitors, including SP-141 [12, 24, 25]. […] Thus, to examine the uptake and specificity of [^18F]1 by MDM2 expressing tumor cell lines, MCF-7 and HepG2 cells were treated with 0, 1, 5, or 10 µM SP-141 for 21 h, and then assessed for [^18F]1 uptake for 1 h.\nCell uptake studies of [^18F]1 were conducted using MCF-7 and HepG2 cell lines. […] Next, the incubation medium was removed, cells were rinsed with cold PBS (3 × 0.5 mL) and lysed using Cell Culture Lysis Reagent (0.25 mL, Promega Corporation, Madison, WI, USA) followed by a rinse with PBS (0.125 mL/well). For each well, the supernatant, PBS washes, and the cell lysate were measured for radioactivity in an automated gamma counter (Wallac Wizard™, Perkin Elmer, Waltham, MA, USA). Subsequently, cell lysates were analyzed for protein concentration using the Bradford assay (Bio-Rad, Hercules, CA, USA). Cell uptake for each well was normalized to its protein content and expressed as % uptake/mg protein. Results are presented as mean ± SD for three wells."}, "MCF-7 cells [1]": {"system": "MCF-7 cells", "experiment": "Cell uptake of [^18F]1 in MCF-7 cells after 21 h pretreatment", "format": "cell-based, human", "conditions": "1 h uptake", "procedure": "as §1\nCell uptake studies of [^18F]1 were conducted using MCF-7 and HepG2 cell lines. Briefly, cells plated in 24-well plates (200,000/well) were treated with varying concentrations of SP-141 (1, 5, or 10 µM) or vehicle for 21 h and incubated with a fresh medium containing [^18F]1 (~18.5 kBq in 0.5 mL medium) for 1 h. Next, the incubation medium was removed, cells were rinsed with cold PBS (3 × 0.5 mL) and lysed using Cell Culture Lysis Reagent (0.25 mL, Promega Corporation, Madison, WI, USA) followed by a rinse with PBS (0.125 mL/well). For each well, the supernatant, PBS washes, and the cell lysate were measured for radioactivity in an automated gamma counter (Wallac Wizard™, Perkin Elmer, Waltham, MA, USA). Subsequently, cell lysates were analyzed for protein concentration using the Bradford assay (Bio-Rad, Hercules, CA, USA). Cell uptake for each well was normalized to its protein content and expressed as % uptake/mg protein. Results are presented as mean ± SD for three wells."}, "MCF-7 cells [2]": {"system": "MCF-7 cells", "experiment": "Saturation binding assay with [^18F]1 on MCF-7 cells", "design": "species or system human", "conditions": "30 min incubation, nonspecific binding from cells pretreated with 1 µM SP-141 for 25 h, read-out: Kd (equilibrium dissociation constant)", "procedure": "Next, saturation binding assays were conducted to evaluate the binding affinity of [^18F]1 on MCF-7 cells. In these experiments, MCF-7 cells seeded in 24-well plates were incubated for 30 min with eight increasing concentrations of [^18F]1 in serial two-fold dilutions (185.5–1.4 nM). Nonspecific binding was assessed in parallel using cells that were pretreated with 1 µM SP-141 for about 25 h to induce MDM2 degradation, thereby depleting MDM2 from the cells. Uptake of [^18F]1 in SP-141-pretreated cells was considered nonspecific and was subtracted from the total binding data for untreated cells at each radiotracer concentration to calculate the equilibrium dissociation constant (Kd) by nonlinear regression analysis in Graphpad Prism®.\nFor the saturation binding assay with [^18F]1, MCF-7 cells plated in 24-well plates (200,000 cells/well) were treated for 25 h with vehicle (DMSO, <5%; plate #1, for total binding) or SP-141 (1 µM; plate #2, to determine nonspecific binding). […] At each concentration of [^18F]1, nonspecific binding was determined in parallel (plate #2) in cells treated with 1 µM SP-141 to induce MDM2 degradation. Specific binding data were calculated by subtracting nonspecific binding from total binding and fit using the equation “Specific binding with Hill slope” in GraphPad Prism® (GraphPad, v5.01). […]"}},
  "note": "Where “and” joins values, the source holds several entries; their conditions need not be identical. Equal values may be shown once.",
  "data": [
    {"compound": "[18F]CCOc1ccc2[nH]c3c(-c4cccc5ccccc45)nccc3c2c1", "note": "[[^18F]1]", "values": [
      {"measurement": "[^18F]1 uptake, baseline", "setting": "HepG2 cells", "result": "67.5 %/mg protein and ~ 68 %/mg protein"},
      {"measurement": "[^18F]1 uptake", "setting": "MCF-7 cells [1]; MCF-7 cells treated with SP-141 (1, 5 or 10 µM) for 21 h", "result": "≤ 18.5 ± 0.0", "unit": "%/mg protein"},
      {"measurement": "[^18F]1 uptake", "setting": "MCF-7 cells [1]; vehicle-treated control MCF-7 cells", "result": "71.4 %/mg protein and 71.4 ± 0.0 %/mg protein"},
      {"measurement": "Kd", "setting": "MCF-7 cells [2]", "result": 78.1, "unit": "nM"}
    ]}
  ]
}
